These results are taken from ChEMBL document CHEMBL1201862, “PubChem BioAssay data set” (2004).

The target of test [1] is Neurotensin receptor type 1 (Homo sapiens, UniProt P30989). It is filed as functional.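 Also: Image-based confirmatory dose-response assay measuring agonist activity at NTR1; NTR1-expressing U2OS osteosarcoma cells imaged for beta-arrestin GFP spot formation; agonist potency where compounds increase beta-arrestin recruitment.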
The nature of test [2]: non-specific 3'UTR reporter inhibition in Clone20-Shn3RL – cell-based, Renilla luciferase, cherry-picked, counter-screen for Shn3 inhibitor project, dose response (AID 624133). It is filed as functional.
Test [3] is described as follows: HEK-293T viability loss after treatment – luminescence, T-cell screen hits, cytotoxicity control for TCR NF-kB inhibitor project, dose response (AID 489026).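 Also: cells exposed to compound about 14 hours before the viability readout.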 The test is classed as functional, cell-based.
The test system of test [4] is BJ. The test is described as follows: growth inhibition of engineered Ras-driven BJ cells – cell-based, alamar blue fluorescence, cherrypicked samples, dose response (AID 2631).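 Also: confirmatory dose-response assay in RAS-dependent BJ fibroblasts engineered with TERT, LT and ST, with cytotoxicity read by fluorescence.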 It is filed as functional. The conditions noted are these: Homo sapiens.
In test [5] the test system is BJ. Briefly: BJ-TERT-LT-ST fibroblast viability loss – cell-based, RAS-independent, luminescence, dose response (AID 1935).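 Also: BJ fibroblasts immortalized with TERT plus LT and ST oncogenes.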 The test is classed as functional. The note with it: Homo sapiens.
For test [6], the target named is T1, Protein skinhead-1 (Caenorhabditis elegans, UniProt P34707).
T1 sequence (P34707 whole entry): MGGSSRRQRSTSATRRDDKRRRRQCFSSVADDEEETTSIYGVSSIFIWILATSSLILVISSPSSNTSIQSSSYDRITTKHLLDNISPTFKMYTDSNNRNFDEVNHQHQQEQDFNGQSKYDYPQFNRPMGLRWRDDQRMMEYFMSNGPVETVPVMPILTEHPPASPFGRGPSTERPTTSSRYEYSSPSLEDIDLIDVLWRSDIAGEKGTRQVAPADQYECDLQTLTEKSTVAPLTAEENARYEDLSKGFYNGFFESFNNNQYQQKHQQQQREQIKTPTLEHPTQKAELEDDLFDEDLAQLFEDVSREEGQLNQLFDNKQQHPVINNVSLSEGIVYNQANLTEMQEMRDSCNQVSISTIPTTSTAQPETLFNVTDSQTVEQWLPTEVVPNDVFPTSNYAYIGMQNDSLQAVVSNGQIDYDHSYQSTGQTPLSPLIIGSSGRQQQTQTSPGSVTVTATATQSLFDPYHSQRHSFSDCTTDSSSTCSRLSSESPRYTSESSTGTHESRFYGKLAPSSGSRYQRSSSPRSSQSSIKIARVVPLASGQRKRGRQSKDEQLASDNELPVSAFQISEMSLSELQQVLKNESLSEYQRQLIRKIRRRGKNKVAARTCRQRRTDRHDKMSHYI
The test is classed as functional.

Test [7] addresses T2, Sentrin-specific protease 6 (Homo sapiens, UniProt Q9GZR1).
T2 sequence (Q9GZR1 whole entry): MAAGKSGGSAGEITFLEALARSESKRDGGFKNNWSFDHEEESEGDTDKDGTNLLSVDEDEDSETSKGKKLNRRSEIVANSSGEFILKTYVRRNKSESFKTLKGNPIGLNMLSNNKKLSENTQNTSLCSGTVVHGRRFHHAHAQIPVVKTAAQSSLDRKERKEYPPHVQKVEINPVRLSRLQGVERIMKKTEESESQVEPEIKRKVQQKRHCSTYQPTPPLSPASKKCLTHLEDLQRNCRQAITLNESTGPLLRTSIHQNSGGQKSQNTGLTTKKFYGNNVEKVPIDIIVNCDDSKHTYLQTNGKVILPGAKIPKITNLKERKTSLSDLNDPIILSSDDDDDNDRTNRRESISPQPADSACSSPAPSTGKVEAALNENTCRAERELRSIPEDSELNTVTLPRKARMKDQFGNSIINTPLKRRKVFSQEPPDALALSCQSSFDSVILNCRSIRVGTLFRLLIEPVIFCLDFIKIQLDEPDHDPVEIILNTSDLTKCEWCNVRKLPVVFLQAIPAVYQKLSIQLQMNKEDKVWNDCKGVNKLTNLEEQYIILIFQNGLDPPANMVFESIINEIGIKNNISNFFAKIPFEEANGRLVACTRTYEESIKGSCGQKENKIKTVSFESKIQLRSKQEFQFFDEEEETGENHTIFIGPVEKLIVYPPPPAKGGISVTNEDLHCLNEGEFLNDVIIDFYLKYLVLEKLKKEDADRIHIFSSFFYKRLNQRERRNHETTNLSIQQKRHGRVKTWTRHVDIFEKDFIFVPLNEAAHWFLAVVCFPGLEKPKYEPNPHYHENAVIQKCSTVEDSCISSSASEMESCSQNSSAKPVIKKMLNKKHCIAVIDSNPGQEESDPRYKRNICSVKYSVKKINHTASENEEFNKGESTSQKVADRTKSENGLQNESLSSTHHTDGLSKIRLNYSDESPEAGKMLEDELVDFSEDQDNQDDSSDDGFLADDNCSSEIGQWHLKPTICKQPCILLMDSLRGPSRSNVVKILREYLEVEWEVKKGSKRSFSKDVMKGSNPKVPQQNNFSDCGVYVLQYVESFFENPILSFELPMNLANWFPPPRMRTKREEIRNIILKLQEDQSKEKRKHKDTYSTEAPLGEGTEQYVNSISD
Briefly: SAR Analysis of small molecule inhibitors of Sentrin-specific protease 6 (SENP6) using a Luminescent assay. [Related pubchem assays (depositor defined):AID2582, AID2599]. The test is classed as functional.

Test [8] deals with T3, Mannose-6-phosphate isomerase (Homo sapiens, UniProt P34949).
T3 sequence (P34949 whole entry): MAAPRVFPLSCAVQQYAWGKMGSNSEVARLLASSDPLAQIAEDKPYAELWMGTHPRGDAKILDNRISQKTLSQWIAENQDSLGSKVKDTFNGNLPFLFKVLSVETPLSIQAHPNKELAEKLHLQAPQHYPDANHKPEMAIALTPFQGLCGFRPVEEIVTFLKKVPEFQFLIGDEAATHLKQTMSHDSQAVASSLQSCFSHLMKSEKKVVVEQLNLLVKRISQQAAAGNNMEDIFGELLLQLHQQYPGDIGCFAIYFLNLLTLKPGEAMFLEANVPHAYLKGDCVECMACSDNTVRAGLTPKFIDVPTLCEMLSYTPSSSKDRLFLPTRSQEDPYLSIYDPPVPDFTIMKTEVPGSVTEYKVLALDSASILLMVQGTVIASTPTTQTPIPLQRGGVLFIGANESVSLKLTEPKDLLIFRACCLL
Briefly: MPI inhibition at elevated mannose 6-phosphate – biochemical, fluorescence intensity, high mannose 6-phosphate, primary screen (AID 1220).

Test [9] deals with Serine/threonine-protein phosphatase PP1-alpha catalytic subunit (Homo sapiens, UniProt P62136). Briefly: inhibition of protein phosphatase 1 activity – biochemical, fluorescence, dose response (AID 2394).
Sequence of Serine/threonine-protein phosphatase PP1-alpha catalytic subunit (P62136 whole entry): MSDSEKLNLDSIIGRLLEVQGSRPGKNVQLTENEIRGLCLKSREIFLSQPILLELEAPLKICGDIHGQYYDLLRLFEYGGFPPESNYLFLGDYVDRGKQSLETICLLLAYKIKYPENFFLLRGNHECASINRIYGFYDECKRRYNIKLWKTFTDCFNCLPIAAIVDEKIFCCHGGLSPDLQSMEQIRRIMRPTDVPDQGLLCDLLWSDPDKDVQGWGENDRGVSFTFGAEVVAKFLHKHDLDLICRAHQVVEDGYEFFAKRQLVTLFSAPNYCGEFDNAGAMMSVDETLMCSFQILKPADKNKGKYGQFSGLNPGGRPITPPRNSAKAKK
The target of test [10] is Dual specificity tyrosine-phosphorylation-regulated kinase 1A (Rattus norvegicus, UniProt Q63470). It is filed as biochemical, Homo sapiens.
Test [11] addresses T4, Cysteine protease ATG4B (Homo sapiens, UniProt Q9Y4P1).
T4 sequence (Q9Y4P1 whole entry): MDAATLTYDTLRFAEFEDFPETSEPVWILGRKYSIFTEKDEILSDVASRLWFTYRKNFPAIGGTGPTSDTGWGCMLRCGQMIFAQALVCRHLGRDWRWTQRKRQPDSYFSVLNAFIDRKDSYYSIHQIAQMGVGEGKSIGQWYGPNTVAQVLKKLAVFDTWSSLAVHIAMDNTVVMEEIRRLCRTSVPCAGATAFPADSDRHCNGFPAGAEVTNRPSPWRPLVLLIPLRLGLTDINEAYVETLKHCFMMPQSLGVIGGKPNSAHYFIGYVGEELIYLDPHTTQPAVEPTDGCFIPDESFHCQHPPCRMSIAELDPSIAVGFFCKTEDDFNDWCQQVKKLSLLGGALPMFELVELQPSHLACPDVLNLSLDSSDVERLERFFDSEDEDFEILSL
It is filed as functional.

Calls of active or inactive are those of the source. Where only a bound is given, the exact number is not on record here.

Sequence of Neurotensin receptor type 1 (P30989 whole entry): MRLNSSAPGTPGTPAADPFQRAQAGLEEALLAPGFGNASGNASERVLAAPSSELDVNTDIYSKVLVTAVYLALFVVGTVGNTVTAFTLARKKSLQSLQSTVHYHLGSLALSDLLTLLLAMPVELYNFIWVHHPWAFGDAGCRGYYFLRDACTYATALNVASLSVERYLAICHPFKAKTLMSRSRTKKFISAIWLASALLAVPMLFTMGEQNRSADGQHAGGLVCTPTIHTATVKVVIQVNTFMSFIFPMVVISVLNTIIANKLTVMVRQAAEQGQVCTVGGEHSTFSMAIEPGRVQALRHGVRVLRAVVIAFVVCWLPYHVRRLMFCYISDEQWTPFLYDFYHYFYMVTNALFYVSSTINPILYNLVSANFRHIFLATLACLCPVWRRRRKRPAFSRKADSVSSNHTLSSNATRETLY

Broadly, the EC50 is the concentration giving half of the maximal effect. In general, AC50 refers to the concentration at which the activity in the assay is half-maximal. As usually defined, the IC50 is the point on the concentration scale where inhibition reaches its midpoint. For the molecule `COC(=O)C[C@]1(C(=O)OC)CN(C#N)N(c2ccc(Cl)cc2)C12c1ccccc1-c1ccccc12`, the half-maximal effective concentration (EC50) in [1] is 3.27 µM (active); in test [4], 1.07 µM (active); in [5] it was 2.78 µM (inconclusive). Further, the AC50 in test [2] is 1.67 µM (active). In addition, the IC50 in test [3] is > 80 µM (inactive).

`O=C(Nc1ccc(C#Cc2ccccc2)cc1)C1CC1`: the IC50 in test [6] is > 100 µM (inactive); in test [7], > 99 µM (inactive).

As for `CCCCn1c(NC(=O)c2ccco2)c(C(=O)OCC)c2nc3ccccc3nc21`, the values for the IC50 in test [8] and in test [9] were > 50 µM (not active) and 62.5 µM (not active), respectively.

On to `Cc1ccccc1NC1=C/C(=N\S(=O)(=O)c2ccc(C(=O)O)cc2)c2ccccc2C1=O`, for which the AC50 in test [10] was 4.11 µM (active). Besides, in test [11], the IC50 was 5.85 µM (active).

Turning to `COc1ccc(-c2cc(-c3ccc(C)cc3)[nH]n2)c(O)c1`, the IC50 in test [6] was > 100 µM (inactive).
